Results on 9 compounds are retold here after patent EP4471048A1, “PEPTIDE INHIBITORS OF INTERLEUKIN-23 RECEPTOR” (Zealand Pharma A/S, priority 2023, dated 2024).

pIC50, pKi: −log10 of the molar value. Where two headings read alike, the source gives them in different places. *1 amine or outer side, *2 acyl side, *3 side chain or, on linkers, in order; H or OH if unused. Where a SMILES comes first, the peptide text is derived from it. Bridges are numbered along the chain shown (N, C = ends). [ ]: non-standard residue; d: D form. hAad = O=C([C@H](CCCCC(=O)[*:3])N[*:1])[*:2]; X7 = O=C(C[C@H](CCCN[*:3])N[*:2])[*:1]; 2Nal = N[C@@H](Cc1ccc2ccccc2c1)C(=O)O; AEF = NCCOc1ccc(C[C@H](N)C(=O)O)cc1; 3Pal = N[C@@H](Cc1cccnc1)C(=O)O; αMeL = CC(C)C[C@](C)(N)C(=O)O; CH2COCH2 = O=C(C[*:1])C[*:2]; dDab = NCC[C@@H](N)C(=O)O; Dab = NCC[C@H](N)C(=O)O; X6 = O=C(CN[*:2])[*:1]

Assay [1] addresses T1, human IL-23R (Homo sapiens, UniProt Q5VWK5).
T1 sequence (Q5VWK5 22-629): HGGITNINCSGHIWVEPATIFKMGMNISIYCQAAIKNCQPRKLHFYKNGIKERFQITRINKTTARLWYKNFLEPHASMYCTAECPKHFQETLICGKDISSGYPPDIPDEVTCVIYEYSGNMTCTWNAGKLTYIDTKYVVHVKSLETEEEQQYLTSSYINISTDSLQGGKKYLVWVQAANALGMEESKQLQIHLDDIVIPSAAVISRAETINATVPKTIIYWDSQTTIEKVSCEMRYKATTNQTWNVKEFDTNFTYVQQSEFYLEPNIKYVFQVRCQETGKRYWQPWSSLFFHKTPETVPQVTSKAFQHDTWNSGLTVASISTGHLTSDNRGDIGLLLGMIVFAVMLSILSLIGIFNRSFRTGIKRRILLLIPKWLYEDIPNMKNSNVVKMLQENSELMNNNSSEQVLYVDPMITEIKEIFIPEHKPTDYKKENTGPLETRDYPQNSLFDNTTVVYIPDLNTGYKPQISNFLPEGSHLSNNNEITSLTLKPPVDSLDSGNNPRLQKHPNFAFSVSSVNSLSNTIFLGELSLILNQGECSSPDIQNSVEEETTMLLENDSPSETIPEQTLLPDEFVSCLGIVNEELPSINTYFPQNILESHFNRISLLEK
Description: biochemical. The note with it: for Emax: read-out: % displacement (hIL-23R NIuc). Summed up: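 BRET displacement of a TAMRA-labelled reference compound from N-terminal Nanoluc-IL-23R fusion protein in membranes from stably transfected HEK293 cells. Incubation 2 h at room temperature, then Nanoluc substrate was added and the TAMRA/Nanoluc ratio read. IC50 and maximal displacement came from 4-parameter logistic fits.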

For assay [2], the target named is IL-23 mediated signalling (Homo sapiens, UniProt Q5VWK5). Description: Functional inhibition of IL-23 mediated STAT3 signalling (phospho-STAT3 MSD) in DB cells. The note with it: for Emax: read-out: hIL-23 (pSTAT3) antagonist % inhibition. The class given is cell-based. An excerpt: Upon binding of IL-23, the IL-23R forms a heterodimer signalling complex together with IL-12R β1, which through the JAK2/STAT3 pathway promotes phosphorylation of STAT3 to form phospho-STAT3.
For compounds tested in this assay, the response was normalized relative to control values to calculate the IC50 and maximal inhibitory response from a concentration response curve of the compound in presence of a fixed concentration of human IL-23.
The assay procedure was as follows. […] Following preincubation of the DB cells with inhibitor for 15 min in a cell incubator (37 °C, 5% CO2), 20 µL of the prepared 3X the EC80 of hIL-23 solution was added to each well and incubated for 90 min in a cell incubator (37 °C, 5% CO2). For some wells buffer only or IL-23 only corresponding to the EC80 was added to obtain readouts needed for normalization. To terminate the assay, the plate was spun at 1000 G for 5 min to pellet cells, the supernatant removed using an 8-channel manual pipette, and then added 50 µL/well Complete Lysis Buffer from the MSD STAT3 kit (Cat# K150SVD, Mesoscale) to the cell pellet. To completely lyse cells to release phospho-STAT3 for detection, the plate was shaken for 10 min at room temperature (500 rpm) sealed with aluminium foil and placed at -80 °C for a minimum of 15 min. Detection of the phospho-STAT3 level in the cell lysate from the individual wells was determined using the MSD STAT3 kit (Cat# K150SVD, Mesoscale) and read on a Meso QuickPlex SQ 120 plate reader (Mesoscale).
For data analysis raw data counts from the Meso QuickPlex SQ 120 plate reader were normalized relative to the response by the EC80 of h1L-23 alone (no compound added) and the buffer level. Compound potency (IC50) and maximal inhibitory response (% inhibition) were estimated by computer-aided curve fitting using a 4-parameter logistic (4PL) nonlinear model. […] Table 3-2: hIL-23 (pSTAT3) antagonist IC50 and % inhibition

The mark [3] stands for this setting: Table 3-2, DB cells, hIL-23 at EC80, read-out: hIL-23 (pSTAT3) antagonist IC50.
The mark [4] stands for this setting: Table 3-2, maximal inhibitory response, DB cells, hIL-23 at EC80.

For the compound `CC(=O)N[C@H]1CCCCNC(=O)CC[C@@H](C(=O)N[C@@H](CCCNC(=N)N)C(N)=O)NC(=O)[C@H](CC(C)C)NC(=O)[C@H](Cc2ccc3ccccc3c2)NC(=O)[C@H](Cc2c[nH]c3ccccc23)NC(=O)[C@@H]2CSCC(=O)CSC[C@H](NC(=O)[C@H](CO)NC1=O)C(=O)N[C@@H](Cc1c[nH]c3ccccc13)C(=O)N[C@@H](CCC(N)=O)C(=O)N2` [Ref 18, [Ac]-K(1c)SC(2a)WQC(2a)W[2-Nal]LE(1c)R-[NH2], reference compound] (HELM PEPTIDE1{[ac].K.S.C.W.Q.C.W.[O=C([C@H](Cc1ccc2ccccc2c1)N[*:1])[*:2]].L.E.R.[am]}|CHEM1{[O=C(C[*:1])C[*:2]]}$PEPTIDE1,PEPTIDE1,2:R3-11:R3|PEPTIDE1,CHEM1,4:R3-1:R1|PEPTIDE1,CHEM1,7:R3-1:R2$$$V2.0), in assay [1], the “% displacement (hIL-23R NIuc)” value worked out at 103%, the pIC50 is 8.46 and the pKi is 8.55. The pIC50 in assay [2] (setting [3]) was 7.74. Further, the Emax in assay [2] (setting [4]) stood at 97%.
For `CC(C)C[C@]1(C)NC(=O)[C@H](Cc2ccc3ccccc3c2)NC(=O)[C@H](Cc2ccc(OCCN)cc2)NC(=O)[C@@H]2CCC(=O)N[C@H](CCNC(=O)CCCC[C@@H](C(=O)N[C@@H](CCN)C(=O)N[C@@H](Cc3cccnc3)C(N)=O)NC1=O)C(=O)N[C@@H]([C@@H](C)O)C(=O)N[C@@H](C(C)C)C(=O)N[C@@H](Cc1c[nH]c3ccccc13)C(=O)N[C@@H](CCC(N)=O)C(=O)N2` [Compound 7, [{d}Dab](1c)(6c)^†TVWQE(6c)[Y(2-aminoethoxy)][2-Nal][2-Me-Leu][2-Amino-6-carboxyhexanoyl](1 c)[Dab][3-(3-Pyridyl)-Ala]-[NH2]] ([dDab]TVWQE[AEF][2Nal][αMeL][hAad][Dab][3Pal]-NH2; lactam 1-10, N-6), in assay [1], the “% displacement (hIL-23R NIuc)” value came to 104% and the pIC50 was 10.77. Further, in assay [2] (setting [4]), the Emax came out at 99%.
As for `CC(=O)N[C@H]1CCSC[C@@H](C(=O)N[C@@H](Cc2ccc(OCCN)cc2)C(=O)N[C@@H](Cc2c[nH]c3ccccc23)C(=O)N[C@@](C)(CCCCN)C(=O)N[C@@H](CCC(=O)O)C(=O)N[C@@H](CC(N)=O)C(=O)NCC(N)=O)NC(=O)[C@H](CCC(N)=O)NC(=O)[C@H](Cc2c[nH]c3ccccc23)NC(=O)[C@H]([C@@H](C)O)NC(=O)[C@H](CCC(N)=O)NC1=O` [Compound C, [Ac]-[Abu](16i)QTWQC(16i)[Y(2-aminoethoxy)]W[2-Me-Lys]ENG-[NH2], reference compound], in assay [1], the “% displacement (hIL-23R NIuc)” value is 102%, the negative-log IC50 (pIC50) was 8.59 and the pKi is 8.68. For the same compound, in assay [2] (setting [3]), the pIC50 is 7.89. Besides, the Emax in assay [2] (setting [4]) was determined as 99%.
For the compound `CC(=O)N[C@H]1CCCCNC(=O)CC[C@@H](C(=O)N[C@@H](CCN)C(=O)N[C@@H](Cc2cccnc2)C(N)=O)NC(=O)[C@](C)(CC(C)C)NC(=O)[C@H](Cc2ccc3ccccc3c2)NC(=O)[C@H](Cc2ccc(OCCN)cc2)NC(=O)[C@@H]2CSCC(=O)CSC[C@H](NC(=O)[C@H]([C@@H](C)O)NC1=O)C(=O)N[C@@H](Cc1c[nH]c3ccccc13)C(=O)N[C@@H](CCC(N)=O)C(=O)N2` [Ref 155, [Ac]-K(1c)TC(2a)WQC(2a)[Y(2-aminoethoxy)][2-Nal][2-Me-Leu]E(1c)[Dab][3-(3-Pyridyl)-Ala]-[NH2], reference compound] (Ac-KTCWQC[AEF][2Nal][αMeL]E[Dab][3Pal]-NH2; lactam 1-10; linker 3-6 via CH2COCH2), in assay [1], the “% displacement (hIL-23R NIuc)” value was 97%, the pIC50 was 11.00 and the pKi is 11.09. Moreover, the pIC50 in assay [2] was 10.51. Moreover, the Emax in assay [2] (setting [4]) was 100%.
`CNC(=O)[C@H](Cc1cccnc1)NC(=O)[C@H](CCN)NC(=O)[C@@H]1CCC(=O)NCCCC[C@@H]2NC(=O)CC[C@H](NC(=O)[C@H](CCC(N)=O)NC(=O)[C@H](Cc3c[nH]c4ccccc34)NC(=O)[C@H]([C@@H](C)O)NC2=O)C(=O)N[C@@H](Cc2ccc(OCCN)cc2)C(=O)N[C@@H](Cc2ccc3ccccc3c2)C(=O)N[C@@](C)(CC(C)C)C(=O)N1` [Compound 36, K(1c)(6c)^†TWQE(6c)[Y(2-aminoethoxy)][2-Nal][2-Me-Leu]E(1c)[Dab][3-(3-Pyridyl)-Ala]-[NHMe]] (KTWQE[AEF][2Nal][αMeL]E[Dab][3Pal]-NHMe; lactam 1-9, N-5) had a pIC50 in assay [1] of 9.54. Moreover, the Emax was 100% in assay [1] and 97% in assay [2] (setting [4]).
Turning to `CC(C)C[C@]1(C)NC(=O)[C@H](Cc2c[nH]c3ccccc23)NC(=O)[C@H](Cc2c[nH]c3ccccc23)NC(=O)[C@@H]2CSCC(=O)CSC[C@H](NC(=O)[C@H]([C@@H](C)O)NC(=O)[C@@H](NC(=O)CN)CSCC(=O)CSC[C@@H](C(=O)N[C@@H](CO)C(N)=O)NC1=O)C(=O)N[C@@H](Cc1c[nH]c3ccccc13)C(=O)N[C@@H](CCC(=O)O)C(=O)N2` (single isomer, unassigned) [I5 (isomer 3), H-GC(1a)TC(2a)WEC(2a)WW[2-Me-Leu]C(1a)S-[NH2], reference compound], the pIC50 in assay [1] is 7.05. Further, the Emax in assay [2] (DB) was 91%.
For the compound `CNC(=O)[C@H](Cc1cccnc1)NC(=O)[C@H](CCN)NC(=O)[C@@H]1CCC(=O)NCC(=O)NCCCC[C@@H]2NC(=O)CC[C@H](NC(=O)[C@H](CCC(N)=O)NC(=O)[C@H](Cc3c[nH]c4ccccc34)NC2=O)C(=O)N[C@@H](Cc2ccc(OCCN)cc2)C(=O)N[C@@H](Cc2ccc3ccccc3c2)C(=O)N[C@@](C)(CC(C)C)C(=O)N1` [Compound 46, [K(G)](1c)(6c)^†WQE(6c)[Y(2-aminoethoxy)][2-Nal][2-Me-Leu]E(1c)[Dab][3-(3-Pyridyl)-Ala]-[NHMe]] (KWQE[AEF][2Nal][αMeL]E[Dab][3Pal]-NHMe; linker 1-8 via X6; lactam N-4), in assay [1], the pIC50 is 8.14 and the Emax amounted to 104%. In addition, the Emax in assay [2] (setting [4]) came out at 102%.
`CC(C)C[C@]1(C)NC(=O)[C@H](Cc2ccc3ccccc3c2)NC(=O)[C@H](Cc2ccc(OCCN)cc2)NC(=O)[C@@H]2CCNC(=O)CC[C@H](NC(=O)[C@H](CO)NC(=O)Cc3ccc(cc3)CNC(=O)CC[C@@H](C(=O)N[C@@H](CCN)C(N)=O)NC1=O)C(=O)N[C@@H](Cc1c[nH]c3ccccc13)C(=O)N[C@@H](CCC(N)=O)C(=O)N2` [Ref 125, [4-Aminomethyl-phenylacetyl](1c)*SE(2c)WQ[Dab](2c)[Y(2-aminoethoxy)][2-Nal][2-Me-Leu]E(1c)[Dab]-[NH2], reference compound]: in assay [1], the “% displacement (hIL-23R NIuc)” value came to 101%, the pIC50 is 9.14 and the pKi is 9.22. Also, the pIC50 in assay [2] (setting [3]) was 7.68. The Emax in assay [2] (setting [4]) turned out to be 98%.
For the compound `CC(C)C[C@]1(C)NC(=O)[C@H](Cc2ccc3ccccc3c2)NC(=O)[C@H](Cc2ccc(OCCN)cc2)NC(=O)[C@@H]2CCC(=O)N[C@@H](CCCNC(=O)CC[C@@H](C(=O)N[C@@H](CCN)C(=O)N[C@@H](Cc3cccnc3)C(N)=O)NC1=O)CC(=O)N[C@@H]([C@@H](C)O)C(=O)N[C@@H](C(C)C)C(=O)N[C@@H](Cc1c[nH]c3ccccc13)C(=O)N[C@@H](CCC(N)=O)C(=O)N2` [Compound 12, [bLys](1c)(6c)^†TVWQE(6c)[Y(2-aminoethoxy)][2-Nal][2-Me-Leu]E(1c)[Dab][3-(3-Pyridyl)-Ala]-[NH2]] (TVWQE[AEF][2Nal][αMeL]E[Dab][3Pal]-NH2; linker N-5-9 via X7), the “% displacement (hIL-23R NIuc)” value in assay [1] is 104%. Besides, the Emax in assay [2] (setting [4]) was 100%.

Broadly, the pIC50 is −log10 of the IC50, conventionally taken in molar units. One may read the pKi as the negative decadic logarithm of the Ki, by convention in mol/L. Higher therefore signals a low Ki.
